Values quoted from earlier work in publication PMC2864424 (Current Chemical Genomics, 2010).

What was measured:
OATP1B1 = conditions: cited from earlier work
OATP1B3 = conditions: concentrations up to 10 μM; cited from earlier work

CC1(C)C(/C=C/C=C/C=C/C=C2\N(CCCCS(=O)(=O)O)c3ccc4ccccc4c3C2(C)C)=[N+](CCCCS(=O)(=O)[O-])c2ccc3ccccc3c21 [indocyanine green]
effect on OATP1B1-mediated estradiol-17β-glucuronide transport (OATP1B1): specific inhibitor | effect on OATP1B3-mediated estradiol-17β-glucuronide transport (OATP1B3): not affecting
